Calls of active or inactive are those of the source. No cut-off for these calls is given here.

One assay deals with Nippostrongylus brasiliensis. Briefly: Anthelmintic activity against Nippostrongylus brasiliensisin in parasitized po dosed albino rat assessed as dose required to 75 % clearance relative to untreated control. It is filed as functional. The conditions noted are these: read-out: MED.
As for `c1ccc(-c2cc(N3CCOCC3)on2)cc1`, the minimal effective dose came to 500 mg/kg.

With `CSc1cc(-c2ccccc2)no1`, the minimal effective dose is 31 mg/kg.

`Clc1cc(-c2ccc(Cl)c(Cl)c2)on1`: the minimal effective dose was 250 mg/kg.

On to `Clc1noc(-c2ccccc2)c1Cl`, for which the minimal effective dose worked out at 31 mg/kg.

For the compound `Cc1ccc(-c2cc(Cl)no2)cc1`, the minimal effective dose was 500 mg/kg.

Consider `Clc1cc(-c2cccs2)on1`, for which the minimal effective dose was found to be 250 mg/kg.

For the compound `C=CCCCOc1cc(-c2ccccc2)no1`, the minimal effective dose is 125 mg/kg.

Regarding `Clc1cc(-c2ccccc2)on1`, the minimal effective dose came to 31 mg/kg.

On to `CN(C)c1cc(-c2ccccc2)no1`, for which the minimal effective dose amounted to 125 mg/kg.

`Brc1cc(-c2ccccc2)no1`: the minimal effective dose is 16 mg/kg.

For `CCOc1cc(-c2ccccc2)no1`, the minimal effective dose came to 31 mg/kg.

In the case of `COc1cc(-c2ccccc2)no1`, the minimal effective dose was found to be 31 mg/kg.

With `Brc1cc(-c2ccccc2)on1`, the minimal effective dose turned out to be 31 mg/kg.

For the compound `Clc1ccc(-c2cc(Cl)no2)cc1`, the minimal effective dose turned out to be 62 mg/kg.

Regarding `Clc1ccc(-c2cc(Br)no2)cc1`, the minimal effective dose was found to be 250 mg/kg.

For the compound `Ic1cc(-c2ccccc2)on1`, the minimal effective dose was determined as 250 mg/kg.

In the case of `Clc1cc(-c2ccccc2)no1`, the minimal effective dose turned out to be 16 mg/kg.

As for `Clc1ccc(-c2cc(Cl)no2)c(Cl)c1`, the minimal effective dose was 62 mg/kg.

With `CCSc1cc(-c2ccccc2)no1`, the minimal effective dose came out at 125 mg/kg.

The test system of the next assay is Nippostrongylus brasiliensis. The assay can be described thus: Anthelmintic activity against Nippostrongylus brasiliensisin in parasitized albino rat assessed as dose required to 75 % clearance at 500 mg/kg, po relative to untreated control.
Conditions: not given
It is filed as functional, organism-based. On the set-up: dose 500 mg/kg.
As for `COc1onc(-c2ccccc2)c1Cl`, the outcome was inactive.

For `O=C(CC[N+](=O)[O-])c1ccc(Cl)c(Cl)c1`, the outcome was inactive.

As for `FC(F)(F)c1cc(-c2ccccc2)no1`, the result was inactive.

Take `O=C(CC[N+](=O)[O-])c1ccc(Cl)cc1`: the outcome was inactive.

With `C[S+]([O-])c1cc(-c2ccccc2)no1` (stereo not drawn), the outcome was inactive.

Regarding `Nc1noc(-c2ccccc2)c1Cl`, the outcome was inactive.

Regarding `O=C(Nc1cc(-c2ccccc2)on1)C(F)(F)F`, the outcome was inactive.

In the case of `Clc1ccc(-c2ccno2)cc1`, the outcome was inactive.

Take `Oc1cc(-c2ccc(Cl)cc2)on1`: the result was inactive.

For the compound `O=C(CC[N+](=O)[O-])c1ccc(Cl)cc1Cl`, the outcome was inactive.

For `C=CCc1c(-c2ccccc2)noc1Cl`, the outcome was inactive.

Consider `CS(=O)(=O)c1cc(-c2ccccc2)no1`, for which the outcome was inactive.

With `FC(F)(F)c1cc(-c2ccccc2)on1`, the result was inactive.

Turning to `Clc1onc(-c2ccccc2)c1Cl`, the result was inactive.

Turning to `c1ccc(-c2ccon2)cc1`, the result was inactive.

Turning to `c1ccc(CSc2cc(-c3ccccc3)no2)cc1`, the result was inactive.

As for `Nc1cc(-c2ccccc2)on1`, the result was inactive.

As to `O=C(CC[N+](=O)[O-])c1cccs1`, the result was inactive.

On to `CS(=O)(=O)Oc1cc(-c2ccccc2)on1`, for which the outcome was inactive.

In the case of `O=C(CC[N+](=O)[O-])c1ccccc1`, the result was inactive.

On to `O=[N+]([O-])c1ccc(-c2cc(Cl)no2)cc1`, for which the result was inactive.

Consider `Nc1noc(-c2ccccc2)c1Br`, for which the result was inactive.

Consider `CNC(=O)Nc1cc(-c2ccccc2)on1`, for which the outcome was inactive.

As to `CSc1onc(-c2ccccc2)c1Cl`, the result was inactive.

For `Cc1ccc(C(=O)CC[N+](=O)[O-])cc1`, the result was inactive.

Turning to `O=[N+]([O-])c1cc(-c2cc(Cl)no2)ccc1Cl`, the outcome was inactive.

For `O=C(Nc1noc(-c2ccccc2)c1Cl)C(F)(F)F`, the result was inactive.

With `COC(=O)Nc1cc(-c2ccccc2)on1`, the result was inactive.

Take `CCSCCOc1cc(-c2ccccc2)no1`: the outcome was inactive.

The values above are taken from ChEMBL document CHEMBL3272043, “Isoxazole anthelmintics” (1977).
